# Measured values from patent US20070128217A1 (priority 2003, published 2007).
# How the values were obtained:
# [1] = system: antibodies in sera from SARS patients (sera 1a, 1b, 2, 6, 37, 62, London, SARS-yellow, SARS-green); assay type: binding, human; set-up: Binding of serum 6 to linear peptides of protein X1 of SARS-CoV Urbani / Binding of serum 37 to linear peptides of protein X1 of SARS-CoV Urbani / Binding of serum 6 to looped/cyclic peptide (PEPSCAN-ELISA) / Binding of serum 37 to looped/cyclic peptide (PEPSCAN-ELISA) / Binding of serum 37 to looped/cyclic peptides of protein X1 of SARS-CoV Urbani / Binding of serum 6 to linear peptides of protein X2 / Binding of serum 37 to linear peptides of protein X2 / Binding of serum 37 to looped/cyclic peptides of protein X2 of SARS-CoV Urbani / Binding of serum 6 to linear peptides of protein M of SARS-CoV Urbani / Binding of serum 37 to linear peptides of protein M of SARS-CoV Urbani / Binding of serum 6 to looped/cyclic peptides of protein M of SARS-CoV Urbani / Binding of serum 37 to looped/cyclic peptides of protein M of SARS-CoV Urbani / Binding of serum 6 to linear peptides of protein X3 of SARS-CoV Urbani / Binding of serum 37 to linear peptides of protein X3 of SARS-CoV Urbani / Binding of serum 37 to looped/cyclic peptides of protein X3 of SARS-CoV Urbani / Binding of serum 6 to linear peptides of protein X4 of SARS-CoV Urbani / Binding of serum 37 to linear peptides of protein X4 of SARS-CoV Urbani / Binding of serum 37 to looped/cyclic peptides of protein X4 of SARS-CoV Urbani / Binding of serum 6 to linear peptides of protein X5 of SARS-CoV Urbani / Binding of serum 37 to linear peptides of protein X5 of SARS-CoV Urbani / Binding of serum 37 to looped/cyclic peptides of protein X5 of SARS-CoV Urbani / Binding of serum 6 to linear peptides of protein N of SARS-CoV Urbani / Binding of serum 37 to linear peptides of protein N of SARS-CoV Urbani / Binding of serum 6 to linear peptide (PEPSCAN-ELISA) / Binding of serum 1a to looped/cyclic peptides of protein N of SARS-CoV Urbani / Binding of serum 1b to looped/cyclic peptides of protein N of SARS-CoV Urbani / Binding of serum 2 to looped/cyclic peptides of protein N of SARS-CoV Urbani / Binding of serum 6 to looped/cyclic peptides of protein N of SARS-CoV Urbani / Binding of serum 37 to looped/cyclic peptides of protein N of SARS-CoV Urbani / Binding of serum 62 to looped/cyclic peptides of protein N of SARS-CoV Urbani / Binding of serum London to looped/cyclic peptides of protein N of SARS-CoV Urbani / Binding of serum SARS-green to looped/cyclic peptides of protein N of SARS-CoV Urbani: unit not given here
# [2] = system: rabbit serum obtained by immunizing a rabbit with the SARS-CoV strain Frankfurt 1; assay type: binding; set-up: Binding of a rabbit serum to linear peptides / Binding of a rabbit serum to looped peptides / Rabbit serum linear peptides / Rabbit serum looped peptides / Binding of a rabbit serum to linear peptides of protein N of SARS-CoV Urbani (Rabbit serum linear peptides) / Binding of a rabbit serum to looped/cyclic peptides of protein N of SARS-CoV Urbani (Rabbit serum looped peptides): unit not given here
# [3] = system: control sera (pooled serum of ten healthy LUMC hospital workers; commercial negative donor pooled serum from the Dutch bloodbank); assay type: binding, human; set-up: Binding of Control serum LUMC to linear peptides / Binding of Control serum Blood-bank to linear peptides / Binding of Control serum LUMC to looped peptides / Binding of Control Serum Blood-Bank to Looped peptides / Binding of Control serum LUMC to linear peptides of the protein M of SARS-CoV Urbani / Binding of Control serum Blood-bank to linear peptides of the protein M of SARS-CoV Urbani / Binding of Control serum LUMC to looped peptides of the protein M of SARS-CoV Urbani / Binding of Control Serum Blood-Bank to Looped peptides of the protein M of SARS-CoV Urbani: unit not given here
sequence,measurement,setting,value
SQRVGTDSGFAAYNR,Binding of serum 1a to linear peptides of protein M of SARS-CoV Urbani,[1],0.8
same,Binding of serum 1a to looped/cyclic peptides of protein M of SARS-CoV Urbani,[1],0.5
same,Binding of serum 1b to linear peptides of protein M of SARS-CoV Urbani,[1],0.6
same,Binding of serum 1b to looped/cyclic peptides of protein M of SARS-CoV Urbani,[1],0.4
same,Binding of serum 2 to linear peptides of protein M of SARS-CoV Urbani,[1],0.4
same,Binding of serum 2 to looped/cyclic peptides of protein M of SARS-CoV Urbani,[1],0.7
same,Binding of serum 6 to linear peptides of protein M of SARS-CoV Urbani,[1],0.6
same,Binding of serum 6 to looped/cyclic peptides of protein M of SARS-CoV Urbani,[1],0.6
same,Binding of serum 37 to linear peptides of protein M of SARS-CoV Urbani,[1],0.5
same,Binding of serum 37 to looped/cyclic peptides of protein M of SARS-CoV Urbani,[1],0.2
same,Binding of serum 62 to linear peptides of protein M of SARS-CoV Urbani,[1],0.4
same,Binding of serum 62 to looped/cyclic peptides of protein M of SARS-CoV Urbani,[1],0.5
same,Binding of serum London to linear peptides of protein M of SARS-CoV Urbani,[1],0.4
same,Binding of serum London to looped/cyclic peptides of protein M of SARS-CoV Urbani,[1],0.2
same,Binding of serum SARS-green to linear peptides of protein M of SARS-CoV Urbani,[1],0.5
same,Binding of serum SARS-green to looped/cyclic peptides of protein M of SARS-CoV Urbani,[1],0.4
same,Binding of serum SARS-yellow to linear peptides of protein M of SARS-CoV Urbani,[1],0.5
same,Binding of serum SARS-yellow to looped/cyclic peptides of protein M of SARS-CoV Urbani,[1],0.6
same,Rabbit serum linear peptides,[2],0.2
same,Rabbit serum looped peptides,[2],0.1
same,Binding of Control Serum Blood-Bank to Looped peptides of the protein M of SARS-CoV Urbani,[3],0.7
same,Binding of Control serum Blood-bank to linear peptides of the protein M of SARS-CoV Urbani,[3],0.9
same,Binding of Control serum LUMC to linear peptides of the protein M of SARS-CoV Urbani,[3],1.0
same,Binding of Control serum LUMC to looped peptides of the protein M of SARS-CoV Urbani,[3],0.6
SRRRLLACLCKHKKV,Binding of serum 1a to looped/cyclic peptides of protein X2 of SARS-CoV Urbani,[1],0.2
same,Binding of serum 1b to looped/cyclic peptides of protein X2 of SARS-CoV Urbani,[1],0.2
same,Binding of serum 2 to looped/cyclic peptides of protein X2 of SARS-CoV Urbani,[1],0.1
same,Binding of serum 6 to looped/cyclic peptides of protein X2 of SARS-CoV Urbani,[1],0.0
same,Binding of serum 37 to looped/cyclic peptides of protein X2 of SARS-CoV Urbani,[1],0.2
same,Binding of serum 62 to looped/cyclic peptides of protein X2 of SARS-CoV Urbani,[1],0.3
same,Binding of serum London to looped/cyclic peptides of protein X2 of SARS-CoV Urbani,[1],0.1
same,Binding of serum SARS-green to looped/cyclic peptides of protein X2 of SARS-CoV Urbani,[1],0.2
same,Binding of serum SARS-yellow to looped/cyclic peptides of protein X2 of SARS-CoV Urbani,[1],0.2
same,"Recognition of the peptide by sera of SARS-CoV infected individuals, and form (linear, looped/cyclic) in which it is recognized",[1],recognized in linear form
same,Binding of a rabbit serum to linear peptides,[2],0.3
same,Binding of a rabbit serum to looped peptides,[2],0.4
same,Binding of Control Serum Blood-Bank to Looped peptides,[3],0.2
same,Binding of Control serum Blood-bank to linear peptides,[3],0.9
same,Binding of Control serum LUMC to linear peptides,[3],0.6
same,Binding of Control serum LUMC to looped peptides,[3],0.2
STAWLCALGKVLPFH,Binding of serum 1a to linear peptides of protein X5 of SARS-CoV Urbani,[1],0.8
same,Binding of serum 1a to looped/cyclic peptides of protein X5 of SARS-CoV Urbani,[1],0.6
same,Binding of serum 1b to linear peptides of protein X5 of SARS-CoV Urbani,[1],0.6
same,Binding of serum 1b to looped/cyclic peptides of protein X5 of SARS-CoV Urbani,[1],0.4
same,Binding of serum 2 to linear peptides of protein X5 of SARS-CoV Urbani,[1],0.6
same,Binding of serum 2 to looped/cyclic peptides of protein X5 of SARS-CoV Urbani,[1],0.6
same,Binding of serum 6 to linear peptides of protein X5 of SARS-CoV Urbani,[1],0.7
same,Binding of serum 6 to looped/cyclic peptides of protein X5 of SARS-CoV Urbani,[1],0.5
same,Binding of serum 37 to linear peptides of protein X5 of SARS-CoV Urbani,[1],0.7
same,Binding of serum 37 to looped/cyclic peptides of protein X5 of SARS-CoV Urbani,[1],0.4
same,Binding of serum 62 to linear peptides of protein X5 of SARS-CoV Urbani,[1],0.8
same,Binding of serum 62 to looped/cyclic peptides of protein X5 of SARS-CoV Urbani,[1],0.7
same,Binding of serum London to linear peptides of protein X5 of SARS-CoV Urbani,[1],0.7
same,Binding of serum London to looped/cyclic peptides of protein X5 of SARS-CoV Urbani,[1],0.2
same,Binding of serum SARS-green to linear peptides of protein X5 of SARS-CoV Urbani,[1],0.6
same,Binding of serum SARS-green to looped/cyclic peptides of protein X5 of SARS-CoV Urbani,[1],0.3
same,Binding of serum SARS-yellow to linear peptides of protein X5 of SARS-CoV Urbani,[1],0.3
same,Binding of serum SARS-yellow to looped/cyclic peptides of protein X5 of SARS-CoV Urbani,[1],1.0
same,Rabbit serum linear peptides,[2],0.5
same,Rabbit serum looped peptides,[2],0.7
same,Binding of Control Serum Blood-Bank to Looped peptides,[3],0.5
same,Binding of Control serum Blood-bank to linear peptides,[3],0.9
same,Binding of Control serum LUMC to linear peptides,[3],0.6
same,Binding of Control serum LUMC to looped peptides,[3],0.6
STHFAFACADGTRHT,Binding of serum 1a to linear peptides of protein X4 of SARS-CoV Urbani,[1],0.7
same,Binding of serum 1a to looped/cyclic peptides of protein X4 of SARS-CoV Urbani,[1],0.7
same,Binding of serum 1b to linear peptides of protein X4 of SARS-CoV Urbani,[1],0.6
same,Binding of serum 1b to looped/cyclic peptides of protein X4 of SARS-CoV Urbani,[1],0.5
same,Binding of serum 2 to linear peptides of protein X4 of SARS-CoV Urbani,[1],0.5
same,Binding of serum 2 to looped/cyclic peptides of protein X4 of SARS-CoV Urbani,[1],0.6
same,Binding of serum 6 to linear peptides of protein X4 of SARS-CoV Urbani,[1],0.7
same,Binding of serum 6 to looped/cyclic peptides of protein X4 of SARS-CoV Urbani,[1],0.5
same,Binding of serum 37 to linear peptides of protein X4 of SARS-CoV Urbani,[1],0.7
same,Binding of serum 37 to looped/cyclic peptides of protein X4 of SARS-CoV Urbani,[1],0.6
same,Binding of serum 62 to linear peptides of protein X4 of SARS-CoV Urbani,[1],0.8
same,Binding of serum 62 to looped/cyclic peptides of protein X4 of SARS-CoV Urbani,[1],0.5
same,Binding of serum London to linear peptides of protein X4 of SARS-CoV Urbani,[1],0.8
same,Binding of serum London to looped/cyclic peptides of protein X4 of SARS-CoV Urbani,[1],0.3
same,Binding of serum SARS-green to linear peptides of protein X4 of SARS-CoV Urbani,[1],0.6
same,Binding of serum SARS-green to looped/cyclic peptides of protein X4 of SARS-CoV Urbani,[1],0.5
same,Binding of serum SARS-yellow to linear peptides of protein X4 of SARS-CoV Urbani,[1],0.3
same,Binding of serum SARS-yellow to looped/cyclic peptides of protein X4 of SARS-CoV Urbani,[1],0.6
same,Rabbit serum linear peptides,[2],0.4
same,Rabbit serum looped peptides,[2],0.4
same,Binding of Control Serum Blood-Bank to Looped peptides,[3],0.7
same,Binding of Control serum Blood-bank to linear peptides,[3],0.6
same,Binding of Control serum LUMC to linear peptides,[3],0.5
same,Binding of Control serum LUMC to looped peptides,[3],0.9
